These results are taken from patent publication US6894168B2, “Carbamoyl tetrahydropyridine derivatives” (Taisho Pharmaceutical Co., Ltd., priority 1999, dated 2005).

pIC50: −log10 of the molar value.

This experiment addresses T1, CRF receptor (Rattus norvegicus, UniProt P35353).
T1 construct: The frontal cortex of rats was homogenized in a 50 mM Tris hydrochloric acid buffer; from tissue; host or cells: rat frontal cortex membranes
T1 sequence (P35353 24-415): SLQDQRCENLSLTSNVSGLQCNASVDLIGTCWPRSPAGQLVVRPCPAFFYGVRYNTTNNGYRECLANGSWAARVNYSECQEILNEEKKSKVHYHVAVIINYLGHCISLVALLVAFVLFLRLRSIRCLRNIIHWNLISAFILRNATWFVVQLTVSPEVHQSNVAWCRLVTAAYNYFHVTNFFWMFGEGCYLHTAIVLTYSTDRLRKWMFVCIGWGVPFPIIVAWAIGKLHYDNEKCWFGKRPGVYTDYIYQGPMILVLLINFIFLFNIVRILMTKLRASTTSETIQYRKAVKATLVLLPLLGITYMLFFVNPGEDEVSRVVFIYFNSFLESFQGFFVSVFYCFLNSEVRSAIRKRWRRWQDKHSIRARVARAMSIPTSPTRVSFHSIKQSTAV
Put plainly: CRF receptor binding experiment (125I-CRF, rat frontal cortex membranes). Particulars: frontal cortex membranes of rats 0.3 mg protein/ml; 125I-CRF 0.2 nM; 2 hours at 25° C.; read-out: IC50 (concentration of the test agent for controlling 50% of the binding of 125I-CRF). The method, then: Experimental Example [CRF receptor binding experiment]
As a receptor preparation, the frontal cortex membranes of rats were employed.
As a ^125I labeled ligand, ^125I-CRF was employed.
The binding reaction employing a ^125I labeled ligand was carried out in the following method as described in The Journal of Neuroscience, 7, 88 (1987).
Preparation of the receptor membrane preparations: The frontal cortex of rats was homogenized in a 50 mM Tris hydrochloric acid buffer (pH 7.0) containing 10 mM MgCl2 and 2 mM EDTA, and subsequently, the homogenized mixture was centrifuged at 48,000×g. The precipitate was washed once with the Tris hydrochloric acid buffer. The precipitate was suspended in a 50 mM tris hydrochloric acid buffer (pH 7.0) containing 10 mM MgCl2, 2 mM EDTA, 0.1% bovine serum albumin, and 100 kalliklein unit/ml aprotinin, to produce a membrane preparation.
CRF receptor binding experiment: The membrane preparation (0.3 mg protein/ml), ^125I-CRF (0.2 nM), and a test agent were reacted for 2 hours at 25° C. […] After completion of the washing, the radioactivity of the filter paper was measured by a gamma counter.
The binding quantity obtained when the reaction was carried out in the presence of 1 μM CRF was determined as nonspecific binding of ^125I-CRF, while the difference between the total binding and the nonspecific binding was determined as a specific binding. […]

As to `CSc1cc(C(C)C)ccc1-n1cc(C)c2c(N3CC=C(C(N)=O)CC3)nc(C)nc21` [Com. No. 07, 4-(4-carbamoyl-1,2,3,6-tetrahydropyridin-1-yl)-2,5-dimethyl-7-(4-isopropyl-2-methylthiophenyl)-7H-pyrrolo[2,3-d]pyrimidine], the pIC50 was not below 7.00.
